Experimental data: the NIST ThermoML archive (doi:10.1016/j.jct.2015.02.001)
Several values for one entry are separate records, joined by “and”; a condition that tells them apart may be missing. Equal entries are not always repeated. Numbers after ± are expanded uncertainties.

Conditions: Liquid, Transpiration method

COc1cccc(C)c1 [1-methoxy-3-methylbenzene]
Conditions	vapor or sublimation pressure [kPa]
276.7 K	0.0285 ± 0.0018
277.8 K	0.0314 ± 0.002
280.6 K	0.0395 ± 0.0025
284.7 K	0.0541 ± 0.0035
289.4 K	0.0804 ± 0.005
291.9 K	0.094 ± 0.006
297.7 K	0.1433 ± 0.009
301.1 K	0.1806 ± 0.011
304.1 K	0.2286 ± 0.014
305 K	0.2433 ± 0.015
308 K	0.3006 ± 0.019
310 K	0.3363 ± 0.021
312.2 K	0.4058 ± 0.026

COc1ccccc1C [1-methoxy-2-methylbenzene]
Conditions	vapor or sublimation pressure
275.8 K	0.035 ± 0.0023 kPa
277.7 K	0.0405 ± 0.0025 kPa
278.7 K	0.0432 ± 0.0028 kPa
280.6 K	0.0504 ± 0.0033 kPa
282.6 K	0.0599 ± 0.0038 kPa
285.7 K	0.0735 ± 0.0047 kPa
286.8 K	0.0821 ± 0.0053 kPa
290.2 K	0.1038 ± 0.0065 kPa
293.4 K	0.1308 ± 0.0083 kPa
296.2 K	0.1606 ± 0.01 kPa
298.2 K	0.1819 ± 0.011 kPa
300.2 K	0.2111 ± 0.013 kPa and 0.2117 ± 0.013 kPa
303.3 K	0.2601 ± 0.016 kPa
305.1 K	0.2865 ± 0.018 kPa
308 K	0.3491 ± 0.022 kPa

COc1ccc(C)cc1 [1-methoxy-4-methylbenzene]
Conditions	vapor or sublimation pressure
275.2 K	0.0275 ± 0.0018 kPa
276.4 K	0.031 ± 0.002 kPa
277.2 K	0.0326 ± 0.0021 kPa
278.8 K	0.0379 ± 0.0025 kPa
281.7 K	0.0478 ± 0.003 kPa
284.8 K	0.0612 ± 0.004 kPa
287.5 K	0.0759 ± 0.0048 kPa
289.2 K	0.0861 ± 0.0055 kPa
290.4 K	0.095 ± 0.006 kPa
291.2 K	0.0997 ± 0.0064 kPa
291.3 K	0.1015 ± 0.0065 kPa
294.2 K	0.1267 ± 0.008 kPa
296.2 K	0.1436 ± 0.009 kPa
297.1 K	0.1563 ± 0.0099 kPa
299.2 K	0.1817 ± 0.011 kPa
300.1 K	0.1942 ± 0.012 kPa and 0.2003 ± 0.013 kPa
301.1 K	0.2085 ± 0.013 kPa
303.1 K	0.2465 ± 0.016 kPa
305 K	0.2782 ± 0.018 kPa
308 K	0.3386 ± 0.021 kPa
